In ChEMBL document CHEMBL1201862, “PubChem BioAssay data set” (2004):
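Grown in 96-well plates, cells were treated for 48 hours with each compound at five concentrations. Insufficient inhibition: endpoint recorded as highest concentration tested. GI50: concentration for 50% inhibition of growth.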 The source made the active and inactive calls. No stated cut-off is given here; in the data, active = GI50 up to about 1.1 µM and inactive = higher.

Experiments:
Assay in all cases: NCI anticancer screen, dose series, 48 h
[1] = tested on: SK-MEL-5
[2] = tested on: EKVX
[3] = tested on: OVCAR-4
[4] = tested on: HCT-116
[5] = tested on: SW-620
[6] = tested on: K562
[7] = tested on: NCI-H460
[8] = tested on: M14
[9] = tested on: UACC-257
[10] = tested on: UACC-62
[11] = tested on: CCRF-CEM
[12] = tested on: TK-10
[13] = tested on: NCI-H522
[14] = tested on: CAKI-1

Measured: GI50

CCOC(=O)C(C)(C)Oc1ccc(/C=C/C(=O)c2ccc(Cl)cc2)cc1
inactive: [1] 14.9 µM | [2] > 100 µM | [3] 18.9 µM | [4] 16.4 µM | [5] 13.9 µM | [6] 14.3 µM | [7] 28.7 µM | [8] 18.4 µM | [9] 18.4 µM | [10] 20.6 µM | [11] 17.2 µM | [12] 70.8 µM

CSc1cccc(-n2c3nc(=O)n(C)c(=O)c-3nc3ccccc32)c1
inactive: [1] 1.25 µM | [2] 19.3 µM | [3] 9.53 µM | [4] 7.29 µM | [5] 3.78 µM | [13] 14.7 µM | [6] 12.5 µM | [7] 2.4 µM | [8] 2.7 µM | [9] 4.94 µM | [10] 1.95 µM | [11] 11 µM | [12] 21.8 µM | [14] 3.91 µM

Cc1ccc(S(=O)(=O)N/N=C(\c2nc3ccc(Cl)cc3[nH]c2=O)C(O)c2ccco2)cc1 (centres undefined)
inactive: [1] > 100 µM | [2] > 100 µM | [3] > 100 µM | [4] > 100 µM | [5] > 100 µM | [6] 42.3 µM | [7] > 100 µM | [8] > 100 µM | [9] > 100 µM | [10] > 100 µM | [11] 7.5 µM | [12] > 100 µM | [14] > 100 µM

CC#CCC1CCC(OCC)=CC1=O (centres undefined)
inactive: [1] > 100 µM | [2] > 100 µM | [3] > 100 µM | [4] > 100 µM | [5] > 100 µM | [13] > 100 µM | [6] > 100 µM | [7] > 100 µM | [8] > 100 µM | [9] > 100 µM | [10] > 100 µM | [11] > 100 µM | [12] > 100 µM | [14] > 100 µM

O=C(CCC/C(CC(=O)c1ccc(Br)cc1)=N\O)Nc1ccccc1
inactive: [1] 43.3 µM | [2] > 100 µM | [3] 76.9 µM | [4] > 100 µM | [5] > 100 µM | [7] > 100 µM | [8] > 100 µM | [9] 67.9 µM | [10] 46 µM | [11] 70.3 µM | [12] > 100 µM

O=[N+]([O-])c1cccc(-c2oc(/C=N/c3ccccc3)c([N+](=O)[O-])c2-c2cccc([N+](=O)[O-])c2)c1
inactive: [1] > 100 µM | [2] > 100 µM | [4] > 100 µM | [5] > 100 µM | [13] > 100 µM | [6] > 100 µM | [7] > 100 µM | [8] > 100 µM | [9] > 100 µM | [10] > 100 µM | [11] > 100 µM | [12] > 100 µM

OC1OC2COC(c3ccccc3)OC2C(O)C1O (centres undefined)
inactive: [1] > 100 µM | [2] > 100 µM | [3] > 100 µM | [4] > 100 µM | [5] > 100 µM | [13] > 100 µM | [6] > 100 µM | [7] > 100 µM | [8] > 100 µM | [9] > 100 µM | [10] > 100 µM | [11] > 100 µM | [12] > 100 µM | [14] > 100 µM

CC(C)=CCCC1(C)C=Cc2c(c(C)cc3c2[nH]c2cc(O)ccc23)O1 (centres undefined)
inactive: [1] > 25 µM | [3] 22.7 µM | [4] > 25 µM | [5] > 25 µM | [13] 6.82 µM | [6] > 25 µM | [7] > 25 µM | [8] > 25 µM | [10] > 25 µM | [11] > 25 µM | [12] > 25 µM

N#CC(NNC(=O)c1ccccc1O)c1ccccc1O (centres undefined)
inactive: [1] 8.89 µM | [3] 9.64 µM | [4] 4.29 µM | [5] 7.66 µM | [13] 8.87 µM | [6] 5.43 µM | [7] 4.85 µM | [8] 5.65 µM | [9] 4.06 µM | [10] 2.72 µM | [11] 2.06 µM | [12] 68.9 µM | [14] 3.27 µM

CC1=C(C(=O)NCc2ccccc2)C(c2ccccc2[N+](=O)[O-])C(C(=O)NCc2ccccc2)=C(C)N1
inactive: [1] 13.1 µM | [2] 16.4 µM | [3] 10.2 µM | [4] 6.75 µM | [5] 14.5 µM | [6] 5.08 µM | [7] 14 µM | [8] 11.7 µM | [9] 13.3 µM | [10] 8.49 µM | [11] 6.89 µM | [12] 17.6 µM | [14] 21.3 µM

CC(C)(C)c1ccc2c(c1)S(=O)(=O)Nc1cccc(c1)NS(=O)(=O)c1cc(C(C)(C)C)ccc1OCCOCCO2
inactive: [1] > 100 µM | [2] > 100 µM | [3] > 100 µM | [4] > 100 µM | [5] > 100 µM | [6] > 100 µM | [7] > 100 µM | [8] > 100 µM | [9] > 100 µM | [10] > 100 µM | [12] > 100 µM | [14] > 100 µM

O=C(/C=C/c1ccccc1O)C(c1ccccc1)c1ccccc1
inactive: [1] > 100 µM | [2] > 100 µM | [3] 48.5 µM | [4] > 100 µM | [5] 13.1 µM | [13] 65.6 µM | [6] 78.5 µM | [7] > 100 µM | [8] > 100 µM | [9] > 100 µM | [10] > 100 µM | [11] 60.8 µM | [12] > 100 µM | [14] > 100 µM

Cc1cn(C2CC(O)C(COC(=O)c3ccccc3)O2)c(=O)[nH]c1=O (centres undefined)
inactive: [1] > 100 µM | [3] > 100 µM | [4] > 100 µM | [5] > 100 µM | [13] > 100 µM | [6] > 100 µM | [7] > 100 µM | [8] > 100 µM | [9] > 100 µM | [10] > 100 µM | [11] > 100 µM | [12] > 100 µM | [14] > 100 µM

CCOc1ccccc1NC(=O)CCC(=O)NN
inactive: [1] > 100 µM | [3] > 100 µM | [4] > 100 µM | [5] > 100 µM | [13] > 100 µM | [6] > 100 µM | [7] > 100 µM | [8] > 100 µM | [9] > 100 µM | [10] > 100 µM | [11] > 100 µM | [12] > 100 µM | [14] > 100 µM

Cn1c(=O)c2nc3sc4ccccc4c(=N)n3c2n(C)c1=O
inactive: [1] > 100 µM | [2] > 100 µM | [3] > 100 µM | [5] > 100 µM | [13] > 100 µM | [6] > 100 µM | [7] > 100 µM | [9] > 100 µM | [10] > 100 µM | [11] > 100 µM | [12] > 100 µM | [14] > 100 µM

C[N+]1(C)C/C(=C/c2ccc(F)cc2)C(=O)/C(=C\c2ccc(F)cc2)C1
inactive: [2] > 100 µM | [3] > 100 µM | [4] > 100 µM | [5] 75.9 µM | [13] 16.6 µM | [6] 28.2 µM | [7] 50.9 µM | [8] > 100 µM | [9] 24.7 µM | [10] 13.8 µM | [11] 23.7 µM | [12] > 100 µM

COc1ccc2c3ccc4c(c3n(C)c2c1)C(=O)C=CC4=O
inactive: [1] > 100 µM | [2] 72.8 µM | [3] 29.6 µM | [4] 19.6 µM | [5] 16.4 µM | [13] 10.4 µM | [6] 5.92 µM | [8] > 100 µM | [9] 29.2 µM | [10] 40.3 µM | [11] 2.93 µM

c1ccc2c(c1)C1=NCCN1c1ccccc1-2
inactive: [1] 2.49 µM | [2] 4.54 µM | [3] 2.91 µM | [4] 1.23 µM | [5] 2.37 µM | [13] 1.45 µM | [7] 1.77 µM | [8] 4.01 µM | [9] 2.7 µM | [10] 3.37 µM | [11] 1.64 µM | [12] 2.49 µM | [14] 2.6 µM

Cc1ccc([S+]([O-])c2ccccc2[N+](=O)[O-])cc1 (centres undefined)
inactive: [1] 70 µM | [3] 39.1 µM | [4] > 10 µM | [5] > 100 µM | [13] 33.3 µM | [6] 64.4 µM | [7] 79.8 µM | [8] > 100 µM | [9] > 100 µM | [10] > 100 µM | [11] 28.6 µM | [12] > 100 µM | [14] 43.9 µM

CC(=O)n1cc(CC(C)O)c(=O)[nH]c1=O (centres undefined)
inactive: [1] > 100 µM | [2] > 100 µM | [3] > 100 µM | [4] > 100 µM | [5] > 100 µM | [13] > 100 µM | [6] > 100 µM | [7] > 100 µM | [8] > 100 µM | [9] > 100 µM | [10] > 100 µM | [12] > 100 µM | [14] > 100 µM

CC(C)(C)C(=O)/C=C/c1ccc(Oc2ccccc2)cc1
inactive: [1] 16.2 µM | [2] 20 µM | [4] 12.1 µM | [5] 17.3 µM | [13] 11.2 µM | [6] 7.03 µM | [7] 19.2 µM | [8] 15.3 µM | [9] 18.7 µM | [11] 10.4 µM | [12] 26.6 µM
